Measurements reported in patent publication US4388304A, “Angiotensin-II analogues with antagonizing effects, containing an ester group in position 8, and a process for the preparation thereof” (Richter Gedeon Vegyeszeti Gyar RT, priority 1980, dated 1983).

Tested on: narcotized male cats
Assay: Antagonism of Hypertensin (angiotensin-II) infusion-induced blood pressure rise in narcotized male cats
Assay type: in vivo, cat
Experimental: The antagonistic effects of the new compounds of the general formula (I) were investigated on narcotized male cats. After treating the animals with a ganglion blocking agent and bisecting the cervical vagus nerves on both side, an infusion of Hypertensin (CIBA) was given to the animals at a rate of 0.5 μg/kg/min. When the blood pressure of the animals reached a steady, increased level, the substance to be tested was administered either intravenously or subcutaneously in physiological saline solution or as an aqueous solution which also contained a carrier. The blood pressure drop was measured in mm Hg units, and the extent of decrease was expressed in percent related to the value before treatment. The statistical evaluation was performed on the basis of the blood pressure differences, by Student's single sample "t" test. The term "duration of effect" denotes the period elapsed until the observation of the last, still significant (p=5%) blood pressure difference.

[1] = s.c., physiological saline, dose 100 μg/kg
[2] = s.c., carboxymethyl cellulose (CMC), dose 50 μg/kg
[3] = s.c., carboxymethyl cellulose (CMC), dose 100 μg/kg
[4] = s.c., physiological saline, dose 50 μg/kg
[5] = s.c., carboxymethyl cellulose (CMC), dose 200 μg/kg

Structure (SMILES) | blood pressure decrease, percent related to the value before treatment (i.v., dose 20 μg/kg) | duration of effect (i.v., dose 20 μg/kg) | blood pressure decrease, percent related to the value before treatment [1] | duration of effect [1] | blood pressure decrease, percent related to the value before treatment (i.v., dose 10 μg/kg) | blood pressure decrease, percent related to the value before treatment [2] | duration of effect [2] | blood pressure decrease, percent related to the value before treatment [3] | duration of effect [3] | blood pressure decrease, percent related to the value before treatment [4] | duration of effect [4] | blood pressure decrease, percent related to the value before treatment (s.c., gelatine, dose 200 μg/kg) | duration of effect (s.c., gelatine, dose 200 μg/kg) | other results
CC[C@H](C)[C@H](NC(=O)[C@H](Cc1ccc(O)cc1)NC(=O)[C@@H](NC(=O)[C@H](CCCNC(=N)N)NC(=O)CNC)C(C)C)C(=O)N[C@@H](Cc1c[nH]cn1)C(=O)N1CCC[C@H]1C(=O)N[C@H](C(=O)OC)[C@@H](C)OC [(Sar^1,Thr/Me/--OMe^8)-Ang-II, (sarcosine^1, threonine/Me/methyl ester^8)-angiotensin-II] | 12% | 12 min | 27% | 45 min | – | – | – | – | – | – | – | – | – | –
CC[C@H](C)[C@H](NC(=O)[C@H](Cc1ccc(O)cc1)NC(=O)[C@@H](NC(=O)[C@H](CCCNC(=N)N)NC(=O)CNC)C(C)C)C(=O)N[C@@H](Cc1c[nH]cn1)C(=O)N1CCC[C@H]1C(=O)N[C@@H](C)C(=O)OC [(Sar^1,Ala--OMe^8)-Ang-II, (sarcosine^1, alanine methyl ester^8)-angiotensin-II] | 29% | 60 min | 20% | 45 min | 18% | 11% | 22 min | 18% | 22 min | 20% | 45 min | – | – | duration of effect (i.v., dose 10 μg/kg): 12 min
CNCC(=O)N[C@@H](CCCN=C(N)N)C(=O)N[C@H](C(=O)N[C@@H](Cc1ccc(O)cc1)C(=O)N[C@H](C(=O)N[C@@H](Cc1cnc[nH]1)C(=O)N1CCC[C@H]1C(=O)N[C@@H](C)C(=O)O)C(C)C)C(C)C [Saralasin, (Sar^1, Ala^8)-angiotensin-II, reference compound] | – | – | 29% | – | 32% | – | – | 23% | 45 min | – | – | 23% | .phi. | blood pressure decrease, percent related to the value before treatment [5]: 28%; duration of effect [5]: 90 min; blood pressure decrease, percent related to the value before treatment (s.c., physiological saline, dose 200 μg/kg): 24%
CC[C@H](C)[C@H](NC(=O)[C@H](Cc1ccc(O)cc1)NC(=O)[C@@H](NC(=O)[C@H](CCCNC(=N)N)NC(=O)CNC)C(C)C)C(=O)N[C@@H](Cc1c[nH]cn1)C(=O)N1CCC[C@H]1C(=O)N[C@H](C(=O)OC)[C@@H](C)CC [(Sar^1,Ile--OMe^8)-Ang-II, (sarcosine^1, isoleucine methyl ester^8)angiotensin-II] | 21% | 25 min | 25% | 240 min | – | 9% | .phi. | 17% | 200 min | 8% | 180 min | 23% | 300 min | blood pressure decrease, percent related to the value before treatment (i.v., dose 40 μg/kg): 20%; duration of effect (i.v., dose 40 μg/kg): 38 min; blood pressure decrease, percent related to the value before treatment (s.c., gelatine, dose 100 μg/kg): 5%; duration of effect (s.c., gelatine, dose 100 μg/kg): 15 min
